Literature values, collected in patent US20020192293A1, “Method for manufacture of extended release dosage form” (priority 2001, published 2002).
Where two headings read alike, the source gives them in different places.

Conditions: in words

Row | solubility in water (listed as free-phenytoin) | Compound | solubility in water
1 | practically insoluble in water | O=C1NC(=O)C(c2ccccc2)(c2ccccc2)N1 [phenytoin, 5,5-diphenyl-2,4-imidazolidinedione] | poor solubility in water
2 |  | O=C1N=C([O-])NC1(c1ccccc1)c1ccccc1.[Na+] [sodium phenytoin, Sodium phenytoin] | much more soluble
